Experimental data published in paper PMC11078990, “Identification and characterization of small molecule inhibitors of the LINE-1 retrotransposon endonuclease” (Nature Communications, 2024).
“And” between values parts separate entries of the source, which are not always exact repeats. Identical values can stand only once. Like-named read-outs stand apart in the source and are kept apart here.

What was measured:
[1] = biological target: L1 EN (LINE-1 retrotransposon endonuclease domain) (Homo sapiens, UniProt O00370, N5T); assay: Fluorescent oligonucleotide EN nicking activity assay; assay type: biochemical
APE1 = biological target: T1, APE1 (Homo sapiens, UniProt P27695); assay: APE1 fluorescent oligonucleotide activity assay (abasic site substrate); assay type: biochemical; settings: for activity at 25 µM: read-out: APE1 activity (%)
T1 construct: purchased New England Biolabs (NEB) M0282S

[2] = test system: substrate oligonucleotide used in the EN activity assay; assay type: binding; parameters: key to Binding Detected? (Y/N): Binding Detected? (Y/N); Binding Detected? (Y/N)
L1 retrotransposition = assay: HeLa dual-luciferase L1 retrotransposition assay; assay type: cell-based, human; settings: for L1 retrotransposition, average: average of 4 replicates
HeLa Tet-On cells = settings: human
[3] = read-out: EN activity, percent of no inhibitor control

Sequence of L1 EN (LINE-1 retrotransposon endonuclease domain) (O00370 1-239 N5T): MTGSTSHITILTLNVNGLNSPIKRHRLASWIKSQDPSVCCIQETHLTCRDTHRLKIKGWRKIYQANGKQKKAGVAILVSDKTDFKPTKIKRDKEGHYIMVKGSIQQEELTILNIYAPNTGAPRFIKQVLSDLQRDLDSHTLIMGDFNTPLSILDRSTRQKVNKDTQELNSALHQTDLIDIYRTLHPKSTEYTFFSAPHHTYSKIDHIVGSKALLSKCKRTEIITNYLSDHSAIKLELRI

With `C[C@H]1C[C@H](C)CN(CCCNc2ccc(C(=O)Nc3ccc(C(F)(F)F)cc3)cc2[N+](=O)[O-])C1` [AD9] the “EN activity, percent of no inhibitor control” value ([1]; [Inhibitor] 2 μM, technical replicates 1-3, Fig. 2b source data, 2 µM) was 91.056% and 80.4005%, the remaining activity at 2 µM ([1]; [Inhibitor] 2 μM, technical replicates 1-3, Fig. 2b source data, read-out: EN activity, percent of no inhibitor control) was 100% and the “EN activity, percent of no inhibitor control” value ([1]; [Inhibitor] 10 μM, technical replicates 1-3, Fig. 2b source data, 10 µM) was 101.14% (2×) and 73.8761%. The “EN activity, percent of no inhibitor control” value ([1]; [Inhibitor] 25 μM, technical replicates 1-3, Fig. 2b source data, 25 µM) was 96.0191%, the remaining activity at 25 µM ([1]; [Inhibitor] 25 μM, technical replicates 1-3, Fig. 2b source data, read-out: EN activity, percent of no inhibitor control) was 109% and the “EN activity, percent of no inhibitor control” value ([1]; [Inhibitor] 50 μM, technical replicates 1-3, Fig. 2b source data, 50 µM) was 139.387% and 77.4751% and 117.995%. The “EN activity, percent of no inhibitor control” value ([1]; [Inhibitor] 100 μM, technical replicates 1-3, Fig. 2b source data, 100 µM) was 89.4903%, the remaining activity at 100 µM ([1]; [Inhibitor] 100 μM, technical replicates 1-3, Fig. 2b source data, read-out: EN activity, percent of no inhibitor control) was 85.7% and the “EN activity, percent of no inhibitor control” value ([1]; [Inhibitor] 250 μM, technical replicates 1-3, Fig. 2b source data, 250 µM) was 70.6219%. For the same molecule, the remaining activity at 250 µM ([1]; [Inhibitor] 250 μM, technical replicates 1-3, Fig. 2b source data, read-out: EN activity, percent of no inhibitor control) was 83.4%, the “EN activity, percent of no inhibitor control” value ([1]; [Inhibitor] 500 μM, technical replicates 1-3, Fig. 2b source data, 500 µM) was 47.0918% and the remaining activity at 500 µM ([1]; [Inhibitor] 500 μM, technical replicates 1-3, Fig. 2b source data, read-out: EN activity, percent of no inhibitor control) was 45.2%. The “EN activity, percent of no inhibitor control” value ([1]; [Inhibitor] 1000 μM, technical replicates 1-3, Fig. 2b source data, 1000 µM) was 38.5425%, the remaining activity at 1000 µM ([1]; [Inhibitor] 1000 μM, technical replicates 1-3, Fig. 2b source data, read-out: EN activity, percent of no inhibitor control) was 31.3% and the “EN activity, percent of no inhibitor control” value ([1]; [Inhibitor] 2000 μM, technical replicates 1-3, Fig. 2b source data, 2000 µM) was 14.4137%. For the same molecule, the remaining activity at 2000 µM ([1]; [Inhibitor] 2000 μM, technical replicates 1-3, Fig. 2b source data, read-out: EN activity, percent of no inhibitor control) was 28.7%, the “Percent APE1 activity, average” value (APE1; 250 µM, Supplementary Fig. 6b, n=3) was 100.1% and the “Percent APE1 activity, replicates” value (APE1; 250 µM, Supplementary Fig. 6b, replicates 1-3) was 118.893% and 92.7882% and 88.5535%. The “APE1 percent activity, Replicate 1” value (APE1; compound at 25 μM, Replicate 1) was 119.501%, the “APE1 percent activity, Replicate 2” value (APE1; compound at 25 μM, Replicate 2) was 114.522% and the “APE1 percent activity, Replicate 3” value (APE1; compound at 25 μM, Replicate 3) was 113.798%. For the same molecule, the “APE1 percent activity, average” value (APE1; compound at 25 μM, average of 3 replicates) was 115.94%, the activity at 25 µM (APE1; inhibitors at 25 μM, relative to 0 μM inhibitor control, mean ± s.d., 3 independent experiments) was 116 ± 3.1% and the “Binding Detected? (Y/N)” value [2] was “N”. The “L1 retrotransposition, average” value (L1 retrotransposition; 0.2 μM inhibitor, Figure 4b concentration-dependent inhibition) was 1.898, the “L1 retrotransposition, average” value (L1 retrotransposition; 0.5 μM inhibitor, Figure 4b) was 2.458 and the “L1 retrotransposition, average” value (L1 retrotransposition; 1 μM inhibitor, Figure 4b) was 2.133. For the same molecule, the “L1 retrotransposition, average” value (L1 retrotransposition; 5 μM inhibitor, Figure 4b) was 1.566, the “L1 retrotransposition, average” value (L1 retrotransposition; 10 μM inhibitor, Figure 4b) was 0.7154 and the “L1 retrotransposition, average” value (L1 retrotransposition; 20 μM inhibitor, Figure 4b) was 1.222. For the same molecule, the “L1 retrotransposition, average” value (L1 retrotransposition; 35 μM inhibitor, Figure 4b) was 0.4788, the “Luciferase (retrotransposition), average” value (L1 retrotransposition; Figure 4a Graph 2, 50 μM, 0 μM average 9.679) was 2.116 and the “Luciferase (retrotransposition), replicates” value (L1 retrotransposition; Figure 4a Graph 2, 50 μM, Replicates 1-4, 0 μM average 9.679) was 3.949 and 1.344 and 2.584 and 0.5874. The “Effect on L1 retrotransposition” value (L1 retrotransposition; HeLa cells) was “some activity in the retrotransposition assay” and the “PrestoBlue (viability), average” value (HeLa Tet-On cells; 48 h, 50 μM) was 17.51.
For `O=C1c2ccc(Oc3ccc4c(c3)C(=O)N(Nc3ccc([N+](=O)[O-])cc3[N+](=O)[O-])C4=O)cc2C(=O)N1Nc1ccc([N+](=O)[O-])cc1[N+](=O)[O-]` [AD13], the “EN activity, percent of no inhibitor control” value ([1]; 0.5 µM) was 119.788% and 111.52%, the “EN activity, percent of no inhibitor control” value ([1]; 10 µM) was 92.6481% and 80.1764% and the “EN activity, percent of no inhibitor control” value ([1]; 25 µM) was 33.9668% and 41.2844%. The “EN activity, percent of no inhibitor control” value ([1]; 50 µM) was 7.541% and 8.862% and 3.766%, the “EN activity, percent of no inhibitor control” value ([1]; 100 µM) was 1.558% and 1.832% and the “EN activity, percent of no inhibitor control” value ([1]; 250 µM) was 1.124% and 2.509% and 2.58%. The “EN activity, percent of no inhibitor control” value ([1]; 500 µM) was 0.9149% and 2.171% and 1.168%, the “EN activity, percent of no inhibitor control” value ([1]; 1000 µM) was 5.545% and 2.613% and 9.084% and the remaining activity at 0.5 µM [1, 3] was 114%. It also gave a remaining activity at 10 µM [1, 3] of 97.9%, a remaining activity at 25 µM [1, 3] of 25.1% and a remaining activity at 100 µM [1, 3] of 0.968%. For the same molecule, the remaining activity at […] [1, 3] was 89.7%, the “APE1 percent activity, Replicate 1” value (APE1) was 97.407% and the “APE1 percent activity, Replicate 2” value (APE1) was 88.0071%. The “APE1 percent activity, Replicate 3” value (APE1) was 67.6438%, the “APE1 percent activity, average” value (APE1) was 84.3526% and the activity at 25 µM (APE1) was 84.4 ± 15.2%. For the same molecule, the “Binding Detected? (Y/N)” value [2] was “N”, the “Luciferase (retrotransposition), average” value (L1 retrotransposition) was 4.925 and the “Luciferase (retrotransposition), replicates” value (L1 retrotransposition) was 6.1144 and 4.934 and 4.878 and 3.774. For the same molecule, the “PrestoBlue (viability), average” value (HeLa Tet-On cells) was 12.09.
